{"source": "paper PMC11506774", "about": "(Biomolecules, 2024)", "key": {"EV-A71/FY0805 [1]": {"test_system": "EV-A71/FY0805", "details": "for IC50 (µg/mL) EV-A71 /FY0805: 24 h"}, "EV-D68": {"test_system": "EV-D68", "test": "Immunostaining of viral VP1 after post-infection peptide treatment", "assay_type": "cell-based", "details": "RD cells infected with 10 TCID50/50 µL EV-D68 for 1 h, washed, peptide at 125 µg/mL for 24 h, VP1 immune-stained area (ImageJ)", "protocol": "RD cells at a density of 4 × 10^4/100 µL/well were seeded in 96-well plates 24 h prior to infection. Fifty microliters of the diluted peptide P25 were added under the following conditions: (1) pre-treatment: cells were pretreated with the peptides for 6 h, 4 h, and 2 h at 35 °C, followed by washing twice with DMEM before virus infection; (2) co-treatment: the peptide was added to the cells together with virus without washing; (3) post-treatment: […] to the medium. Co-treatment with a homemade neutralizing antibody of EV-D68 was employed as the reference control. An amount of 100 TCID50/50 µL was used for the CPE reading, while 10 TCID50/50 µL was used for immunostaining. After 22–24 h of incubation the cells were fixed using 4% formaldehyde and stained with crystal violet or an antibody. The staining of crystal violet was measured at 550 nm using a TECAN Infinite 200 PRO instrument. To detect EV-D68, the polyclonal anti-VP1 (Genetek, GTX132313, South San Francisco, CA, USA) was employed for immunostaining, while the rabbit polyclonal anti-VP1 for the staining of Echo11 was prepared in our laboratory. […] The number of plaques was counted using the CTL ELISPOT reader. […]"}, "Poliovirus 3/nOPV3": {"test_system": "Poliovirus 3/nOPV3", "details": "24 h"}, "EV-A71/FY0805 [2]": {"test_system": "EV-A71/FY0805", "test": "Receptor competition inhibition assay with cell-free heparan sulfate (HS)", "assay_type": "cell-based", "details": "peptide 62.5 µg/mL pre-incubated with HS (0–0.5 mg/mL) for 1 h, then mixed with 100 TCID50/50 µL EV-A71/FY0805, RD cells 24 h, crystal violet", "protocol": "To confirm the interaction of P25 with receptor heparan sulfate (HS) on the cell surface, 50 µL P25 or its derivatives at a concentration of 62.5 µg/mL were pre-incubated with 50 µL cell-free HS (MCE, HY-101916, Princeton, NJ, USA) at different concentrations of 0–0.5 mg/mL at 37 °C for 1 h, mixed with 100 TCID50/50 µL of EV-A71/FY0805, and infected the pre-seeding RD monolayer cells on 96-well plates for 24 h. The CPE was detected and stained using crystal violet. The optical density (OD) at 550 nm was read using the TECAN Infinite 200 PRO instrument."}, "EV-D68/BCH895A": {"test_system": "EV-D68/BCH895A", "details": "co-treatment, RD cells, 100 TCID50/50 µL, 24 h, crystal violet; mean ± SD, at least two independent experiments; >125 = protection less than 50% at 125 µg/mL; NO = no inhibition observed"}, "Echo 30/WZ16": {"test_system": "Echo 30/WZ16", "details": "co-treatment, RD cells, 100 TCID50/50 µL, 24 h, crystal violet; mean ± SD, at least two independent experiments; >125 = protection less than 50% at 125 µg/mL; NO = no inhibition observed"}, "RD cells": {"test_system": "RD cells", "test": "Cytotoxicity assay (CCK-8)", "assay_type": "cell-based", "details": "24 h, 2-fold dilutions from 1 mg/mL, CCK-8, absorbance 450 nm, mean ± SD, at least two independent experiments", "protocol": "RD cells at a density of 4 × 10^4/100 µL/well were seeded in 96-well plates 24 h prior to the cytotoxicity assay. The peptide P25 and its derivatives were reconstituted in DMSO to a concentration of 25 mg/mL and then diluted to 1 mg/mL in DMEM with 100 mM HEPES, from which 2-fold serial dilutions of the peptides were produced, starting with the same medium. DMSO diluted in the same medium served as the control. Fifty microliters of diluted peptides and the control medium were added to the cells and cultured for 24 h. After cultivation, 5 µL of the enhanced CCK-8 reagent (Beyotime, C0043, Shanghai, China) were added directly to each well of the cell culture and cultured for an additional hour. Absorbance at 450 nm was detected using a TECAN Infinite 200 PRO instrument. The cell viability was normalized to the control, and the concentration at which a peptide inhibited 50% of the cell viability (CC50) was calculated using GraphPad Prism 9.5.1 (GraphPad software, San Diego, CA, USA)."}, "EV-A71/SZK2021": {"test_system": "EV-A71/SZK2021", "details": "co-treatment, RD cells, 100 TCID50/50 µL, 24 h, crystal violet; mean ± SD, at least two independent experiments; NO = no inhibition observed"}}}
{"smiles": "CC[C@H](C)[C@H](NC(=O)[C@H](Cc1c[nH]cn1)NC(=O)[C@H](CCCCN)NC(=O)[C@@H]1CCCN1C(=O)[C@H](CCCCN)NC(=O)[C@H](CCSC)NC(=O)[C@H](Cc1ccc(O)cc1)NC(=O)[C@@H](NC(=O)[C@H](CCCNC(=N)N)NC(=O)[C@@H](NC(=O)[C@@H](NC(=O)[C@@H](NC(=O)[C@@H](NC(=O)[C@H](Cc1ccccc1)NC(=O)CNC(=O)[C@@H](NC(=O)[C@@H]1CCCN1C(=O)[C@H](CCC(N)=O)NC(=O)[C@@H](N)Cc1c[nH]cn1)C(C)C)[C@@H](C)O)C(C)C)[C@@H](C)O)C(C)C)C(C)C)C(=O)N[C@@H](CCCCN)C(=O)O", "note": "[Peptide P25.9]", "values": [{"measurement": "IC50 (µg/mL) EV-A71 /FY0805", "setting": "EV-A71/FY0805 [1]", "result": "13.02 ± 0.81", "unit": "µg/mL"}, {"measurement": "Inhibition of the synthesis of the viral protein", "setting": "EV-D68", "result": "significantly inhibited the synthesis of the viral protein"}, {"measurement": "IC50 (µg/mL) Poliovirus 3 /nOPV3", "setting": "Poliovirus 3/nOPV3", "result": "108.10 ± 39.15", "unit": "µg/mL"}, {"measurement": "Interference of HS with the antiviral activity of the peptide", "setting": "EV-A71/FY0805 [2]", "result": "interfered with by HS"}]}
{"smiles": "CC[C@H](C)[C@H](NC(=O)[C@H](Cc1c[nH]cn1)NC(=O)[C@H](CCCCN)NC(=O)[C@@H]1CCCN1C(=O)[C@H](CCCCN)NC(=O)[C@H](CCSC)NC(=O)[C@H](Cc1ccc(O)cc1)NC(=O)[C@@H](NC(=O)[C@H](CCCNC(=N)N)NC(=O)[C@@H](NC(=O)[C@@H](NC(=O)[C@@H](NC(=O)[C@@H](NC(=O)[C@H](Cc1ccccc1)NC(=O)CN)[C@@H](C)O)C(C)C)[C@@H](C)O)C(C)C)C(C)C)C(=O)N[C@@H](CCCCN)C(=O)N[C@@H](C)C(=O)N[C@@H](Cc1c[nH]c2ccccc12)C(=O)N[C@@H](C)C(=O)O", "note": "[Peptide P25]", "values": [{"measurement": "IC50 of P25 at 6 h of pre-treatment", "setting": "EV-A71/FY0805 [1]; 6 h", "result": 3.9, "unit": "µg/mL"}, {"measurement": "IC50 (µg/mL) EV-A71 /FY0805", "setting": "EV-A71/FY0805 [1]", "result": "32.35 ± 7.23", "unit": "µg/mL"}, {"measurement": "IC50 (µg/mL) EV-D68 /BCH895A", "setting": "EV-D68/BCH895A", "result": "57.56 ± 5.81", "unit": "µg/mL"}, {"measurement": "IC50 (µg/mL) Echo 30 /WZ16", "setting": "Echo 30/WZ16", "result": ">125", "unit": "µg/mL"}, {"measurement": "CC50", "setting": "RD cells", "result": "256.43 ± 7.15", "unit": "µg/mL"}, {"measurement": "IC50 (µg/mL) EV-A71 /SZK2021", "setting": "EV-A71/SZK2021", "result": "41.32 ± 8.46", "unit": "µg/mL"}, {"measurement": "IC50 (µg/mL) Poliovirus 3 /nOPV3", "setting": "Poliovirus 3/nOPV3", "result": ">125", "unit": "µg/mL"}]}
